The record followed here is patent publication US20260283162A1, “INDOLEACETIC ACID-ENRICHED ALGAE EXTRACT” (FICOSTERRA, S.L., priority 2023, published 2026).

This data set can be described thus: Solubility limit of IAA in water. The data set is classed as physicochemical. As to conditions: apparent, from the IAA concentration in the aqueous extract.

Values after ≈ are worked out from the molar mass of the structure shown.

As usually defined, the solubility is the concentration that dissolves in the medium under given conditions. Take `O=C(O)Cc1c[nH]c2ccccc12` [IAA, indole-3-acetic acid]: the solubility was ~17 µg/mL (≈ 97 µM).
